The results in this text go back to the OligoGym collection.

Oligonucleotides are given in HELM: sugar(base)linkage, 5' to 3'; d 2'-deoxyribose, r ribose, m 2'-O-methylribose, p phosphate. ss, as = sense and antisense strand
Further: test concentration or dose not given here.

The series has as its target TMEM63B. The experiment in a line: reporter assay of Huesken 2005. The following applies: siRNA.
The substance “RNA1{r(A)p.r(G)p.r(U)p.r(U)p.r(U)p.r(G)p.r(G)p.r(C)p.r(G)p.r(C)p.r(A)p.r(G)p.r(C)p.r(C)p.r(U)p.r(A)p.r(C)p.r(G)p.r(C)p.d(T)p.d(T)}|RNA2{r(G)p.r(C)p.r(G)p.r(U)p.r(A)p.r(G)p.r(G)p.r(C)p.r(U)p.r(G)p.r(C)p.r(G)p.r(C)p.r(C)p.r(A)p.r(A)p.r(A)p.r(C)p.r(U)p.d(G)p.d(G)}$$$RNA1{StrandType:ss}|RNA2{StrandType:as}$” came in with a normalised inhibition (eCFP-eYFP dual reporter) of 60.9%.

For “RNA1{r(C)p.r(G)p.r(C)p.r(A)p.r(U)p.r(C)p.r(C)p.r(C)p.r(A)p.r(G)p.r(G)p.r(C)p.r(C)p.r(U)p.r(G)p.r(C)p.r(U)p.r(C)p.r(A)p.d(T)p.d(T)}|RNA2{r(U)p.r(G)p.r(A)p.r(G)p.r(C)p.r(A)p.r(G)p.r(G)p.r(C)p.r(C)p.r(U)p.r(G)p.r(G)p.r(G)p.r(A)p.r(U)p.r(G)p.r(C)p.r(G)p.d(C)p.d(A)}$$$RNA1{StrandType:ss}|RNA2{StrandType:as}$”, the normalised inhibition (eCFP-eYFP dual reporter) came to 74.9%.

Consider “RNA1{r(G)p.r(U)p.r(G)p.r(G)p.r(U)p.r(G)p.r(G)p.r(C)p.r(C)p.r(G)p.r(C)p.r(G)p.r(C)p.r(C)p.r(C)p.r(A)p.r(U)p.r(C)p.r(C)p.d(T)p.d(T)}|RNA2{r(G)p.r(G)p.r(A)p.r(U)p.r(G)p.r(G)p.r(G)p.r(C)p.r(G)p.r(C)p.r(G)p.r(G)p.r(C)p.r(C)p.r(A)p.r(C)p.r(C)p.r(A)p.r(C)p.d(C)p.d(T)}$$$RNA1{StrandType:ss}|RNA2{StrandType:as}$”, for which the normalised inhibition (eCFP-eYFP dual reporter) was 46.3%.

“RNA1{r(G)p.r(C)p.r(C)p.r(U)p.r(A)p.r(C)p.r(C)p.r(A)p.r(U)p.r(G)p.r(A)p.r(U)p.r(C)p.r(A)p.r(A)p.r(C)p.r(C)p.r(C)p.r(C)p.d(T)p.d(T)}|RNA2{r(G)p.r(G)p.r(G)p.r(G)p.r(U)p.r(U)p.r(G)p.r(A)p.r(U)p.r(C)p.r(A)p.r(U)p.r(G)p.r(G)p.r(U)p.r(A)p.r(G)p.r(G)p.r(C)p.d(A)p.d(C)}$$$RNA1{StrandType:ss}|RNA2{StrandType:as}$” had a normalised inhibition (eCFP-eYFP dual reporter) of 39.6%.

Substance “RNA1{r(C)p.r(G)p.r(C)p.r(U)p.r(C)p.r(A)p.r(G)p.r(G)p.r(U)p.r(G)p.r(C)p.r(U)p.r(G)p.r(C)p.r(A)p.r(G)p.r(G)p.r(A)p.r(C)p.d(T)p.d(T)}|RNA2{r(G)p.r(U)p.r(C)p.r(C)p.r(U)p.r(G)p.r(C)p.r(A)p.r(G)p.r(C)p.r(A)p.r(C)p.r(C)p.r(U)p.r(G)p.r(A)p.r(G)p.r(C)p.r(G)p.d(A)p.d(T)}$$$RNA1{StrandType:ss}|RNA2{StrandType:as}$” returned a normalised inhibition (eCFP-eYFP dual reporter) of 46.2%.

In turn, “RNA1{r(G)p.r(U)p.r(C)p.r(U)p.r(C)p.r(C)p.r(A)p.r(G)p.r(C)p.r(U)p.r(C)p.r(C)p.r(G)p.r(U)p.r(U)p.r(G)p.r(A)p.r(C)p.r(U)p.d(T)p.d(T)}|RNA2{r(A)p.r(G)p.r(U)p.r(C)p.r(A)p.r(A)p.r(C)p.r(G)p.r(G)p.r(A)p.r(G)p.r(C)p.r(U)p.r(G)p.r(G)p.r(A)p.r(G)p.r(A)p.r(C)p.d(A)p.d(G)}$$$RNA1{StrandType:ss}|RNA2{StrandType:as}$” registered a normalised inhibition (eCFP-eYFP dual reporter) of 69.5%.

As to “RNA1{r(A)p.r(U)p.r(C)p.r(A)p.r(A)p.r(U)p.r(G)p.r(U)p.r(C)p.r(G)p.r(U)p.r(C)p.r(C)p.r(U)p.r(C)p.r(U)p.r(U)p.r(C)p.r(A)p.d(T)p.d(T)}|RNA2{r(U)p.r(G)p.r(A)p.r(A)p.r(G)p.r(A)p.r(G)p.r(G)p.r(A)p.r(C)p.r(G)p.r(A)p.r(C)p.r(A)p.r(U)p.r(U)p.r(G)p.r(A)p.r(U)p.d(G)p.d(A)}$$$RNA1{StrandType:ss}|RNA2{StrandType:as}$”, the normalised inhibition (eCFP-eYFP dual reporter) was determined as 49.2%.

“RNA1{r(A)p.r(U)p.r(C)p.r(A)p.r(U)p.r(C)p.r(A)p.r(U)p.r(C)p.r(A)p.r(C)p.r(C)p.r(A)p.r(C)p.r(C)p.r(A)p.r(U)p.r(G)p.r(G)p.d(T)p.d(T)}|RNA2{r(C)p.r(C)p.r(A)p.r(U)p.r(G)p.r(G)p.r(U)p.r(G)p.r(G)p.r(U)p.r(G)p.r(A)p.r(U)p.r(G)p.r(A)p.r(U)p.r(G)p.r(A)p.r(U)p.d(G)p.d(G)}$$$RNA1{StrandType:ss}|RNA2{StrandType:as}$” gave a normalised inhibition (eCFP-eYFP dual reporter) of 59.5%.
